US10214492B2, “Heterocyclic inhibitors of MCT4” (Vettore, LLC, priority 2016, dated 2019)

Key:
[1] = Adjuvant-induced arthritis model in rat: Difference of Weight Bearing test (DWB); assay type: in vivo; conditions: SD rat, CFA-induced arthritis; PO 3 days post CFA; compared to Dexamethasone
[2] = Pharmacokinetic assay in rat (IV 3 mg/kg, PO 10 mg/kg); assay type: in vivo; conditions: Male Sprague-Dawley rat; for Rat F: oral bioavailability; for Rat F / half-life: PO 10 mg/kg; for half-life / Vd: plasma; for half-life: read-out: Rat t1/2 (converted); for Vd: volume of distribution, read-out: Rat Vss
Description: (§1) The following are assays that may be used to evaluate the pharmacokinetic properties of Formula (I) in mouse or rat. The assays follow a common procedure recited below.
(§2) 1. […] For PO (oral gavage), DMSO/PEG400 (10:90). Formulations freshly prepared on the day of dosing or prior to dosing. Storage at room temperature.
(§3) 2. Test Species: For Mouse: Male CD1 strain, approximately 6-8 weeks in age, approximately 20-30 g. For Rat: Male Sprague-Dawley strain, approximately 6-8 weeks in age, approximately 200-300 g.
(§4) 3. Dose Level: For IV, 3 mg/kg. For PO, 10 mg/kg.
(§5) 4. Number of animals: 3 per assay.
(§6) 5. PK time points: For IV (plasma): 5 min, 15 min, 1, 2, 4, 6, 8, 24 h post dose. For PO (plasma): 15 min, 30 min, 1, 2, 4, 6, 8, 24 h post dose.
(§7) 6. Blood Sample Collection and Processing. Blood was collected (˜0.2 mL per time point) from jugular vein. Blood of each sample was transferred into plastic micro centrifuge tubes containing anticoagulant of EDTA-K2. Blood samples were centrifuged at 2,000 g for 5 minutes at 4° C. to obtain plasma.
(§8) 7. Samples Analysis: Plasma samples were analyzed using LC/MS/MS method, and pharmacokinetic parameters (half-life: t1/2; oral bioavailability: F; volume of distribution: Vss).

MCT1 = MCT1 (Homo sapiens (Human), UniProt P53985); experiment: Assay 4: MCT1-mediated lactate transport in BT20 breast cancer cells; assay type: cell-based; conditions: Table 27
MCT1, sequence (P53985 whole entry): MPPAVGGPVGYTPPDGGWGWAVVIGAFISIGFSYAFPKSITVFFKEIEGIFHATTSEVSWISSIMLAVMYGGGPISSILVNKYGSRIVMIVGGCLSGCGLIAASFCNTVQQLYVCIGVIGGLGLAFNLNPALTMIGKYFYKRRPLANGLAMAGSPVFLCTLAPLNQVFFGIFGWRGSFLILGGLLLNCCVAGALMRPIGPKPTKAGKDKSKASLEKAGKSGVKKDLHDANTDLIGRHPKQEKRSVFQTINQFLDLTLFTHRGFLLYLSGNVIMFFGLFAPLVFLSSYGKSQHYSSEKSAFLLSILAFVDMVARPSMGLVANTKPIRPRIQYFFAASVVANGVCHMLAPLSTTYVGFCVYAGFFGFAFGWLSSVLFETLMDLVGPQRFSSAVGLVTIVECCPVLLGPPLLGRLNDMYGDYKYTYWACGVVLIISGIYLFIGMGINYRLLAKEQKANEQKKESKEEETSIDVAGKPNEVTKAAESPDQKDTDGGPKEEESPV
MCT1, sequence (P35613 140-385 partner): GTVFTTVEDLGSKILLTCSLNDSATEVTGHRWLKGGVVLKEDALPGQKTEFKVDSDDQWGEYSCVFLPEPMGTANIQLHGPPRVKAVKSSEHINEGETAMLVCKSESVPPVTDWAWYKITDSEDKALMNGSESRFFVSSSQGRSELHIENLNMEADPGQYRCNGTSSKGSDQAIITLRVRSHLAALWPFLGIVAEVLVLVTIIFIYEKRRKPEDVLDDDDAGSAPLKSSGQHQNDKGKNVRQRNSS
In short: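 Transport started with 10 mM L-lactate on BCECF-loaded BT20 cells in Tyrode's Solution, pH 7.4. Dye loading: BCECF-AM ester (30 mM DMSO stock), 5 min at 37° C, then one wash.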

[3] = Adjuvant-induced arthritis model in rat: Mechanical Allodynia test (MA, Von Frey); assay type: in vivo; conditions: SD rat, CFA-induced arthritis; PO 3 days post CFA; compared to Dexamethasone
MCT4 = MCT4 (Homo sapiens (Human), UniProt O15427); experiment: Assay 3: MCT4-mediated lactate transport in MDA-MB-231 breast cancer cells; assay type: cell-based; conditions: MDA-MB-231 cells; lactate transport
MCT4, sequence (O15427 whole entry, looked up): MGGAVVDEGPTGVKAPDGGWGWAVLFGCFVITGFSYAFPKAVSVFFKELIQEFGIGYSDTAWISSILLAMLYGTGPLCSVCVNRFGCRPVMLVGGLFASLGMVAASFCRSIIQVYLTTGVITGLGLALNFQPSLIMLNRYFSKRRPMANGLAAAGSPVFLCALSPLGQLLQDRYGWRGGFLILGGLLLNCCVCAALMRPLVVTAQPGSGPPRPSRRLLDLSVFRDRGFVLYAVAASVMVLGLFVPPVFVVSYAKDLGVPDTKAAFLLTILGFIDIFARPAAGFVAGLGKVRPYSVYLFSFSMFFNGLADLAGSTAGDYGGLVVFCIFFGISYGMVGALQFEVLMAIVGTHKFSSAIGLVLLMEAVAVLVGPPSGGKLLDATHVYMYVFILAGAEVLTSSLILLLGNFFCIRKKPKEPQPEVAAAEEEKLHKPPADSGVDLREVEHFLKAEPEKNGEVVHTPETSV
MCT4, sequence (P35613 whole entry partner, looked up): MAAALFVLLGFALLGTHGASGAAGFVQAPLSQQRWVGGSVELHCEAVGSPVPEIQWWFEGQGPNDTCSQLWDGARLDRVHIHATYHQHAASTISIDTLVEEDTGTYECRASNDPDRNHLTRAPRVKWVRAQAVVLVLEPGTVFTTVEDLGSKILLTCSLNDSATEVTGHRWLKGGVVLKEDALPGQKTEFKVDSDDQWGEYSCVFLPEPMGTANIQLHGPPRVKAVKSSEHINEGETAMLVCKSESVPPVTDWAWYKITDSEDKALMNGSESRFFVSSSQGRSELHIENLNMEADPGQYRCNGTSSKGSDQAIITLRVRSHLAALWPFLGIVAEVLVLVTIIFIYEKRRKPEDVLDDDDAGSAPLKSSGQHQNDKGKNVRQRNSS
In short: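 Read-out is BCECF fluorescence tracking the intracellular pH shift from MCT4-mediated lactate/H+ co-transport. Before measurement, MDA-MB-231 cells take up BCECF-AM for 5 min at 37° C, then are washed into Tyrode's Solution, pH 7.4.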

[4] = Metabolic stability in human liver microsomes (in vitro t1/2); assay type: in vitro ADME; conditions: for half-life at 2 µM: human liver microsomes 0.5 mg/mL, 2 μM compound, read-out: Human microsome t1/2, min; for Human microsome % 60 min: human liver microsomes
In short: (§9)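 Test compound (2 μM final) was added to NADPH-supplemented microsomes at 0.5 mg/mL protein and sampled over 60 min (0–60 min time points). In vitro t1/2 was calculated as −0.693/k, with k the slope of ln percent parent remaining, measured by LC-MS/MS, against time.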

[5] = Metabolic stability in mouse liver microsomes (in vitro t1/2); assay type: in vitro ADME; conditions: for Mouse microsome t1/2, min / half-life at 2 µM: mouse liver microsomes 0.5 mg/mL, 2 μM compound; for Mouse microsome % 60 min: mouse liver microsomes; for half-life at 2 µM: read-out: Mouse microsome t1/2, min
In short: as §9

[6] = Metabolic stability in rat liver microsomes (in vitro t1/2); assay type: in vitro ADME; conditions: for half-life at 2 µM: read-out: Rat microsome t1/2, min; for Rat microsome % 60 min: rat liver microsomes
Protocol: The following are assays that may be used to evaluate the metabolic stability of compounds of Formula (I) in human, rat, or mouse microsomes. The assays follow a common procedure recited below. 1. […] Two separated experiments were performed as follows. a) With NADPH: 10 μL of 20 mg/mL liver microsomes and 40 μL of 10 mM NADPH were added to the incubations. […] The final concentration of microsomes was 0.5 mg/mL. 3. The reaction was started with the addition of 4 μL of 200 μM control compound or test compound solutions. Verapamil was used as positive control in this study. The final concentration of test compound or control compound was 2 μM. 4. Aliquots of 50 μL were taken from the reaction solution at 0, 15, 30, 45 and 60 min. […] Samples were centrifuged at 3,220 g for 40 minutes. A 90 μL aliquot of the supernatant was mixed with 90 μL of ultra-pure H2O and then used for LC-MS/MS analysis. 5. Data analysis. All calculations were carried out using Microsoft Excel. Peak areas were determined from extracted ion chromatograms. The slope value, k, was determined by linear regression of the natural logarithm of the remaining percentage of the parent drug vs. incubation time curve. The in vitro half-life (in vitro t1/2) was determined from the slope value: in vitro t1/2=−(0.693)/k.

[7] = Pharmacokinetic assay in mouse (IV 3 mg/kg, PO 10 mg/kg); assay type: in vivo; conditions: Male CD1 mouse; for Mouse F: oral bioavailability; for Mouse F / half-life: PO 10 mg/kg; for half-life / Vd: plasma; for half-life: read-out: Mouse t1/2 (converted); for Vd: volume of distribution, read-out: Mouse Vss
Description: as §1, §2, §3, §4, §5, §6, §7, §8

[8] = rat liver microsomes 0.5 mg/mL, 2 μM compound

Compound | Rat F [2] | half-life [2] | Vd [2] | IC50 (MCT1) | IC50 (MCT4) | half-life at 2 µM [4] | Human microsome % 60 min [4] | Mouse microsome t1/2, min [5] | Mouse microsome % 60 min [5] | half-life at 2 µM [6, 8] | Rat microsome % 60 min [6] | Mouse F [7] | half-life [7] | Vd [7] | half-life at 2 µM [5] | Rat microsome t1/2, min [6, 8] | Difference in Weight Bearing, Minimal Efficacious Dose [1] | Mechanical Allodynia (Von Frey), Minimal Efficacious Dose [3]
Cc1ccccc1-n1nc(COC(C)(C)C(=O)O)cc1-c1cccc(OC2CCC2)c1 [Example 161, 2-([5-(3-Cyclobutoxyphenyl)-1-(2-methyl-phenyl)-1H-pyrazol-3-yl]methoxy)-2-methylpropanoic acid] | 61% | 5.7 h | 0.32 L/kg | 22000 nM | 3.3 nM | 3.23 h | 82% | ∞ | 99% | 4.32 h | 80% |  |  |  |  |  | ≤10 mg/kg | ≤10 mg/kg
Cn1ncc2cccc(-n3nc(COC(C)(C)C(=O)O)cc3-c3cccc(OCC(C)(C)C)c3)c21 [Example 167, 2-([5-[3-(2,2-dimethylpropoxy)phenyl]-1-(1-methyl-1H-indazol-7-yl)-1H-pyrazol-3-yl]-methoxy)-2-methylpropanoic acid] | 72% | 2.2 h | 1.2 L/kg | 36000 nM | 0.59 nM | 4.17 h | 84% |  | 97% | 1.23 h | 72% | 24% | 1.7 h | 2.6 L/kg | 7.17 h |  |  | 
CC(C)(OCc1cc(-c2cccc(OC3CCC3)c2)n(-c2ccccc2Cl)n1)C(=O)O [Example 175, 2-([1-(2-Chlorophenyl)-5-(3-cyclobutoxy-phenyl)-1H-pyrazol-3-yl]methoxy)-2-methylpropanoic acid] | 48% | 4.2 h | 0.4 L/kg |  |  | 3.53 h | 83% |  | 94% | 5.25 h | 87% |  |  |  | 11.8 h |  | >10 mg/kg | >10 mg/kg
COc1cc(OC)cc(-c2cc(COC(C)(C)C(=O)O)nn2-c2ccccc2Cl)c1 [Example 179, 2-([1-(2-Chlorophenyl)-5-(3,5-dimethoxy-phenyl)-1H-pyrazol-3-yl]methoxy)-2-methylpropanoic acid] | 76% | 2.2 h | 0.3 L/kg | > 100000 nM | 13 nM | 10.7 h | 93% | ∞ | 98% | 5.3 h | 85% |  |  |  |  |  | ≤10 mg/kg | <10 mg/kg
CCn1ncc2ccc(-c3cc(COC(C)(C)C(=O)O)nn3-c3ccccc3N3CCC3)cc21 [Example 228, 2-([1-(2-(Azetidin-1-yl)phenyl]-5-(1-ethyl-1H-indazol-6-yl)-1H-pyrazol-3-yl]-methoxy)-2-methylpropanoic acid] | 94% | 3.1 h | 1.3 L/kg | 31000 nM | 5.9 nM | 2.17 h | 71% |  | 96% | 6.58 h | 91% | 100% | 4.4 h | 2 L/kg | 12.8 h |  |  | 
COc1cc(OC)cc(-c2cc(COC(C)(C)C(=O)O)nn2-c2ccccc2N2CCC2)c1 [Example 251, 2-((1-(2-(Azetidin-1-yl)phenyl)-5-(3,5-dimethoxyphenyl)-1H-pyrazol-3-yl)methoxy)-2-methylpropanoic acid] | 98% | 3 h | 0.38 L/kg | 98000 nM | 5.6 nM | 3.02 h | 77% |  | 63% | 3.02 h | 83% |  |  |  | 1.55 h |  |  | 
CCn1ncc2ccc(-c3cc(CO[C@](C)(CC)C(=O)O)nn3-c3ccccc3N3CCC3)cc21 [Example 269, (2R)-2-([1-[2-(Azetidin-1-yl)phenyl]-5-(1-ethyl-1H-indazol-6-yl)-1H-pyrazol-3-yl]methoxy)-2-methylbutanoic acid] |  |  |  | 58000 nM | 1 nM |  |  |  |  |  |  | 100% | 3.3 h | 1.3 L/kg |  |  |  | 

Now from value to compound, other results behind:

Rat F [2] | half-life [2] | Vd [2] | IC50 (MCT1) | IC50 (MCT4) | half-life at 2 µM [4] | Human microsome % 60 min [4] | Mouse microsome t1/2, min [5] | Mouse microsome % 60 min [5] | half-life at 2 µM [6, 8] | Rat microsome % 60 min [6] | Mouse F [7] | half-life [7] | Vd [7] | half-life at 2 µM [5] | Rat microsome t1/2, min [6, 8] | Compound | Difference in Weight Bearing, Minimal Efficacious Dose [1] | Mechanical Allodynia (Von Frey), Minimal Efficacious Dose [3]
49% | 4.4 h | 0.39 L/kg | 28000 nM | 2.9 nM | 4.6 h | 88% | ∞ | 103% | 38.2 h | 98% |  |  |  |  |  | CCOc1cc(OCC)cc(-c2cc(COC(C)(C)C(=O)O)nn2-c2ccccc2Cl)c1 [Example 180, 2-([1-(2-Chlorophenyl)-5-(3,5-diethoxy-phenyl)-1H-pyrazol-3-yl]methoxy)-2-methylpropanoic acid] | >10 mg/kg | >10 mg/kg
55% | 3.6 h | 3.6 L/kg | 20000 nM | 2.4 nM | 3 h | 78% |  | 43% | 1.22 h | 57% | 57% | 1.9 h | 1.5 L/kg | 0.817 h |  | CCOc1ccccc1Cn1nc(COC(C)(C)C(=O)O)cc1-c1cc(OC)cc(OC)c1 [Example 211] |  | 
76% | 2.7 h | 1.6 L/kg | 19000 nM | 0.35 nM | 21.6 h | 96% | ∞ | 102% |  | 103% | 76% | 3.6 h | 2.8 L/kg |  | ∞ | CCn1ncc2ccc(-c3cc(CO[C@@](C)(CC)C(=O)O)nn3Cc3ccccc3Cl)cc21 [Example 257, (S)-2-((1-(2-chlorobenzyl)-5-(1-ethyl-1H-indazol-6-yl)-1H-pyrazol-3-yl)methoxy)-2-methylbutanoic acid] |  | 
